Assay results taken from US4382920A, “Hormone-like peptides and use thereof” (Perignon Investments Ltd., priority 1980, dated 1983).

Experiment: Body temperature of mice after intravenous injection
Assay type: in vivo
Details: for body temperature at 0 min: amount injected as listed per substance
Description: Type: Out-breed, white NMRI
Average body weight: 24-27 gm
Diet: Standard food pellet
Mice fasted 12-15 hrs. prior to testing (water given during this period)
Mice all separated from one another
Mice kept in quiet and dark environment
Testing time: 1 p.m.-3 p.m. each day
Test solution is prepared by:
(b) dissolving a known amount of the refined brain extract in 0.4 ml of trishydrochloric buffer and adjusting the pH of the solution to from about 7.0 to about 7.4 by titrating with microdrops of 1 M or 0.1 M sodium hydroxide solution.
Volume of solution injected into mice:
Solution is at room temperature when injected into mice.
Mouse is placed in restrainer
Injection is made in the tail vein
Injection time: 2 minutes
Body temperature is measured by inserting a thermistor into the anal cavity to a depth of 11/2 cm (thermistor is made by Thermovit, Fu. Armatherm, Lemgo, W. Germany)
Temperature measurements are begun immediately after injection, i.e., 2 minutes after injection started
The extract obtained from the brain of 40 lungfish is used. Five mice are used in obtaining the data on the aroused lungfish and nine mice are used for the data on the estivating lungfish.

| Structure (SMILES) | body temperature at 0 min (pH 7.0-7.4) | body temperature at 2 min | body temperature at 5 min | body temperature at 10 min | body temperature at 20 min | body temperature at 30 min | body temperature at 40 min | body temperature at 50 min | body temperature at 60 min | further results |
| --- | --- | --- | --- | --- | --- | --- | --- | --- | --- | --- |
| N[C@@H](CC(=O)O)C(=O)O [ASPARTIC ACID] | 36.7 | 35.5 | 36.7 | 38.0 | 37.5 | 37.6 | 37.8 | 37.8 | 37.8 | – |
| O=C([O-])O.[K+] [3.0 M KHCO3, KHCO3] | 37.1 | 34.7 | 35.0 | 36.5 | 37.8 | 37.9 | 38.4 | 38.4 | 38.0 | body temperature at 0 min (pH 7.0-7.4, listed as 0.3 M KHCO3): 37.6; body temperature at 0 min (pH 7.0-7.4, listed as 1.0 M KHCO3): 38.0; body temperature at 2 min (listed as 0.3 M KHCO3): 36.3; body temperature at 2 min (listed as 1.0 M KHCO3): 37.2; body temperature at 5 min (listed as 0.3 M KHCO3): 37.2; body temperature at 5 min (listed as 1.0 M KHCO3): 37.3; body temperature at 10 min (listed as 0.3 M KHCO3): 38.0; body temperature at 10 min (listed as 1.0 M KHCO3): 38.5; body temperature at 20 min (listed as 1.0 M KHCO3): 39.5; body temperature at 30 min (listed as 0.3 M KHCO3): 38.3; body temperature at 30 min (listed as 1.0 M KHCO3): 39.0; body temperature at 40 min (listed as 1.0 M KHCO3): 39.1; body temperature at 50 min (listed as 0.3 M KHCO3): 38.3 |
| CC(=O)[O-].[Na+] [1.0 M SODIUM ACETATE, SODIUM ACETATE] | 37.0 | – | 37.5 | 38.0 | 38.3 | 38.5 | 38.0 | 38.1 | 38.2 | body temperature at 0 min (pH 7.0-7.4, listed as 3.0 M SODIUM ACETATE): 37.5; body temperature at 5 min (listed as 3.0 M SODIUM ACETATE): 36.2; body temperature at 10 min (listed as 3.0 M SODIUM ACETATE): 37.0; body temperature at 20 min (listed as 3.0 M SODIUM ACETATE): 38.0; body temperature at 30 min (listed as 3.0 M SODIUM ACETATE): 37.7; body temperature at 40 min (listed as 3.0 M SODIUM ACETATE): 38.1; body temperature at 50 min (listed as 3.0 M SODIUM ACETATE): 38.6; body temperature at 60 min (listed as 3.0 M SODIUM ACETATE): 38.5 |
| N[C@@H](Cc1c[nH]c2ccccc12)C(=O)O [TRYPTOPHAN] | 36.9 | 36.4 | 36.8 | 37.1 | 37.4 | 36.5 | 36.8 | 37.0 | 36.9 | – |
| O=C(O)CCCC(=O)O [GLUTARIC ACID] | 36.6 | 36.5 | 37.0 | 38.1 | 38.5 | 38.5 | 38.4 | 38.6 | 39.0 | – |
| [Cl-].[Na+] [3.0 M NaCl, NaCl] | 36.0 | 34.9 | 36.5 | 38.1 | 37.9 | 37.4 | 37.4 | 37.6 | 37.7 | – |
